We go through 20 molecules from US20220184041A1, “(AZA)Benzothiazolyl Substituted Pyrazole Compounds” (Pfizer Inc., priority 2020, published 2022).

Where two headings read alike, the source gives them in different places.

For experiment [1], the target named is T1, Bap-tagged TTR protein (Homo sapiens, UniProt P02766).
T1 construct: Bap tag (biotin acceptor peptide, by own knowledge)
Nature of the experiment: KD determination by SPR (Surface Plasmon Resonance binding assay). As to conditions: for Kd: 1:1 binding model, read-out: Geometric Mean KD (μM) [SPR]. As for the experimental part:
Affinity and Reversibility—The binding affinity and kinetics of binding were measured using Surface Plasmon Resonance based binding assay. […] Bap-tagged TTR protein was captured on a Streptavidin coated sensor chip to achieve about 2000 to 3000 RUs of surface density. All the samples were prepared in buffer consisting of 10 mM Sodium Phosphate, pH 7.6, 100 mM KCl, 0.005% Tween-20 and 2% DMSO. The same buffer was used as the running buffer during the experiments. Compound samples were injected at a flow rate of 30 μL/min for 90 seconds of association time followed by at least 240 seconds of dissociation period. The compounds were tested in a concentration series consisting of at least 6 samples (usually 10) made with 5-fold, 3-fold, or 2-fold dilution. […] Multiple blank injections were run before and after each compound series to allow double reference subtraction during data processing and analysis. […] A DMSO curve was run during each experiment to properly correct for excluded volume.

For experiment [2], the target named is Recombinant wild-type TTR (Homo sapiens, UniProt P02766). Description: KD determination by ITC (Isothermal Titration Calorimetry). The following applies: 25° C., sequential binding model with 2 sites. The protocol:
KD Determination by ITC—Isothermal Titration Calorimetry
Recombinant wild-type TTR was diluted to 6.9 μM in 100 mM potassium chloride, 10 mM sodium phosphate pH 7.6, 2.5% DMSO, then degassed and transferred to the sample cell of a VP-ITC instrument (MicroCal). Compounds were diluted to 120 μM in an identical buffer, degassed, and injected 7 μL at a time into the protein solution at 25° C. with a reference power of 10 μCal/sec and 300 second spacing between injections.
Data were analyzed using VP-ITC analysis software in Origin. The data were corrected for heat of dilution then fit to a sequential binding model with 2 sites and K1, ΔH1, K2, and ΔH2 as independent parameters. If necessary, the protein concentration was adjusted by fitting the data to a two-independent-sites model and using the calculated N values to estimate the actual protein concentration that yields two total sites.
Background: In ITC the heat of successive injections is recorded.

The target in experiment [3] is T2, human TTR (biotinylated recombinant protein) (Homo sapiens, UniProt P02766).
T2 construct: biotin (biotinylated)
Nature of the experiment: TTR SPA binding assay ([3H] tafamidis displacement), EC50 determination. The following applies: read-out: Geometric Mean EC50. As for the experimental part:
Binding of Examples to Transthyretin—EC50 Determination
Briefly, assays were prepared at room temperature in 384-well plates (Corning, 3767) containing 200 nL of test compound in DMSO (or DMSO as vehicle). […] The plates were incubated 1 hour prior to addition of 20 μL of 1.25 mg/mL SPA beads diluted in assay buffer. The assays were incubated an additional 10 hours to allow binding to reach equilibrium and the amount of receptor-ligand complex was determined by liquid scintillation counting using a 1450 Microbeta Trilux (Wallac).
The % effect values for test wells were calculated based on the total binding (vehicle, 0% effect) and non-specific binding (unlabeled ligand, 100% effect) wells on each assay plate. EC50 values were then determined using a standard 4 parameter logistic dose response equation.

[4] abbreviates: first site, read-out: Geometric Mean KD1 (μM) [ITC].
Setting [5] is: second site, read-out: Geometric Mean KD2 (μM) [ITC].
The mark [6] stands for this setting: SPA, 50 nM [3H] tafamidis, 100 ng human TTR.

What is called EC50 is the concentration needed to bring the measured effect to its halfway point. Take `Cc1n[nH]c(C)c1-c1cccc2scnc12` [Example 1, 4-(3,5-dimethyl-1H-pyrazol-4-yl)-1,3-benzothiazole]: the figures for the Kd in experiment [1], in experiment [2] (setting [4]) and in experiment [2] (setting [5]) were 0.039 µM, 0.025 µM and 0.458 µM, respectively. The EC50 in experiment [3] (setting [6]) worked out at 31 nM.

With `Cc1n[nH]c(C)c1-c1cccc2ncsc12` [Example 2, 7-(3,5-dimethyl-1H-pyrazol-4-yl)-1,3-benzothiazole], the Kd in experiment [2] (setting [4]) came to 0.005 µM; in experiment [2] (setting [5]), 0.431 µM.

On to `Cc1n[nH]c(C)c1-c1ccc(C)c2scnc12` [Example 3, 4-(3,5-dimethyl-1H-pyrazol-4-yl)-7-methyl-1,3-benzothiazole], for which the Kd in experiment [1] amounted to 0.02 µM. Further, the EC50 in experiment [3] (setting [6]) worked out at 20 nM.

As for `Cc1n[nH]c(C)c1-c1ccc(C(F)(F)F)c2scnc12` [Example 4, 4-(3,5-dimethyl-1H-pyrazol-4-yl)-7-(trifluoromethyl)-1,3-benzothiazole], the Kd in experiment [1] amounted to 0.049 µM. Besides, the EC50 in experiment [3] (setting [6]) was 40 nM.

Turning to `Cc1n[nH]c(C)c1-c1ccc(C#N)c2scnc12` [Example 5, 4-(3,5-dimethyl-1H-pyrazol-4-yl)-1,3-benzothiazole-7-carbonitrile], the Kd in experiment [1] turned out to be 0.052 µM. Besides, the EC50 in experiment [3] (setting [6]) worked out at 52 nM.

For the molecule `Cc1nc2c(-c3c(C)n[nH]c3C)cccc2s1` [Example 6, 4-(3,5-dimethyl-1H-pyrazol-4-yl)-2-methyl-1,3-benzothiazole], the Kd in experiment [1] came out at 0.574 µM. Moreover, the EC50 in experiment [3] (setting [6]) was determined as 1780 nM.

On to `Cc1[nH]nc(C#N)c1-c1cccc2scnc12` [Example 7, 4-(1,3-benzothiazol-4-yl)-5-methyl-1H-pyrazole-3-carbonitrile], for which the Kd in experiment [1] amounted to 0.074 µM. For the same molecule, in experiment [3] (setting [6]), the concentration for a half-maximal effect (EC50) came to 66.1 nM.

`Cc1[nH]nc(C#N)c1-c1ccc(C)c2scnc12` [Example 8, 5-methyl-4-(7-methyl-1,3-benzothiazol-4-yl)-1H-pyrazole-3-carbonitrile]: in experiment [1], the Kd came out at 0.027 µM. In addition, in experiment [3], the EC50 was 19.6 nM.

In the case of `Cc1[nH]nc(C#N)c1-c1ccc(C(F)(F)F)c2scnc12` [Example 9, 5-methyl-4-[7-(trifluoromethyl)-1,3-benzothiazol-4-yl]-1H-pyrazole-3-carbonitrile], the Kd in experiment [1] turned out to be 0.62 µM. For the same molecule, the EC50 in experiment [3] is 35.5 nM.

As to `Cc1n[nH]c(C)c1-c1nccc2scnc12` [Example 10, 4-(3,5-dimethyl-1H-pyrazol-4-yl)[1,3]thiazolo[4,5-c]pyridine], in experiment [1], the Kd is 0.297 µM. Moreover, the EC50 in experiment [3] (setting [6]) is 894 nM.

Take `COc1ccc(-c2c(C)n[nH]c2C)c2ncsc12` [Example 11, 4-(3,5-dimethyl-1H-pyrazol-4-yl)-7-methoxy-1,3-benzothiazole]: the EC50 in experiment [3] (setting [6]) turned out to be 36.3 nM.

Regarding `Cc1n[nH]c(C)c1-c1ccc(F)c2scnc12` [Example 12, 4-(3,5-dimethyl-1H-pyrazol-4-yl)-7-fluoro-1,3-benzothiazole], the EC50 in experiment [3] (setting [6]) was determined as 37.2 nM.

In the case of `Cc1cc(-c2c(C)n[nH]c2C)c2ncsc2c1` [Example 13, 4-(3,5-dimethyl-1H-pyrazol-4-yl)-6-methyl-1,3-benzothiazole], the Kd in experiment [1] stood at 0.058 µM. In experiment [3], the EC50 stood at 21.4 nM.

Take `COc1cc(-c2c(C)n[nH]c2C)c2ncsc2c1` [Example 14, 4-(3,5-dimethyl-1H-pyrazol-4-yl)-6-methoxy-1,3-benzothiazole]: the Kd in experiment [1] turned out to be 0.031 µM. Besides, the EC50 in experiment [3] came to 24.5 nM.

As to `Cc1n[nH]c(C)c1-c1cc(F)cc2scnc12` [Example 15, 4-(3,5-dimethyl-1H-pyrazol-4-yl)-6-fluoro-1,3-benzothiazole], in experiment [1], the Kd stood at 0.027 µM. In addition, the 50% effective concentration (EC50) in experiment [3] is 20.5 nM.

Regarding `Cc1n[nH]c(C)c1-c1cc(C#N)cc2scnc12` [Example 16, 4-(3,5-dimethyl-1H-pyrazol-4-yl)-1,3-benzothiazole-6-carbonitrile], the EC50 in experiment [3] (setting [6]) is 159 nM.

Regarding `Cc1n[nH]c(C)c1-c1c(F)ccc2scnc12` [Example 17, 4-(3,5-dimethyl-1H-pyrazol-4-yl)-5-fluoro-1,3-benzothiazole], the EC50 in experiment [3] (setting [6]) was found to be 28.7 nM.

`Cc1[nH]nc(C(F)(F)F)c1-c1cccc2scnc12` [Example 18, 4-[5-methyl-3-(trifluoromethyl)-1H-pyrazol-4-yl]-1,3-benzothiazole]: in experiment [3] (setting [6]), the EC50 is 133 nM.

On to `Cc1n[nH]c(C)c1-c1ccnc2scnc12` [Example 19, 7-(3,5-dimethyl-1H-pyrazol-4-yl)[1,3]thiazolo[5,4-b]pyridine], for which the EC50 in experiment [3] (setting [6]) is 165 nM.

Regarding `O=C(O)c1ccc2nc(-c3cc(Cl)cc(Cl)c3)oc2c1` [tafamidis, 2-(3,5-dichlorophenyI)-1,3-benzoxazole-6-carboxylic acid, reference compound], the “reversibility of binding to TTR” value in experiment [1] was “reversible”. In addition, the t1/2 in experiment [1] (tafamidis binding to TTR, n=24) was determined as 40.8 s.
